Reference: patent publication US20120329770A1, “CEPHALOSPORIN DERIVATIVES USEFUL AS BETA-LACTAMASE INHIBITORS AND COMPOSITIONS AND METHODS OF USE THEREOF” (priority 2010, published 2012)
Read-outs that look alike come from different tables or passages of the source.

What was measured:
[1] = target: T1, IMP-1 (Serratia marcescens, UniProt P52699); assay: Sensitivity of IMP-1 to proteolysis by trypsin after incubation with inhibitor; type: biochemical; settings: incubation of IMP-1 with inhibitor
T1 construct: made in house; host or cells: Escherichia coli BL21(DE3) carrying pCIP4

[2] = test system: Chryseobacterium meningosepticum IS 5824; assay: Antimicrobial MIC / checkerboard assay for synergy with meropenem; type: cell-based; settings: C. meningosepticum IS 5824; meropenem + compound, checkerboard
Description: (§1) Assays were conducted as described by Weigand et al. (Weigand, I.; Hilpert, K.; Hancock, R. E. Nat. Protocols 2008, 3, 163-175).
(§2) To determine the lowest concentration of an antimicrobial agent that inhibits visible growth of a microorganism, 50 μL of compound solution and 50 μL of buffer solution were added to each well at the desired concentration(s) (i.e. 4×the final concentration) as well as a zero control. Stock solutions of 10 mg/mL, were prepared in DMSO, followed by two-fold serial dilutions in Müeller-Hinton media and 100 μL of bacteria (ca. 5×10^5 CFU/mL) was added to each well. Plate counts were performed on the control wells to determine bacterial innoculum level. The innoculum was prepared by taking an overnight culture in Müeller-Hinton media and diluting to McFarland's 0.5 standard, and diluting a further 1:100 prior to addition to the plate. Lanes with no bacteria added served as sterility controls and lanes with no compound served as growth controls. Organisms were allowed to grow overnight at 37° C. in a humid environment and the plates were monitored at 625 nm for growth. MIC was determined to be the last well with no growth.
(§3) In the checkerboard assay one compound is serially diluted along the ordinate, and the second compound is serially diluted along the abscissa. […] A 50 μL aliquot of the compound was added to each well at the desired concentration(s) (i.e. 4×the final concentration) as well as a zero control. Stock solutions of 10 mg/mL of compound were prepared in DMSO, followed by two-fold serial dilutions in Müeller-Hinton media. Finally, 100 μL of bacteria (ca. 5×10^5 CFU/mL) was added to each well. Plate counts were performed on the control wells. Innoculum was prepared by taking an overnight culture in Müeller-Hinton media and diluting to McFarland's 0.5 standard, and diluting a further 1:100 prior to addition to the plate. Lanes with no bacteria added served as sterility controls and lanes with no meropenem or compound served as growth controls. The final volume in each well was 200 μL. The plates were allowed to grow overnight at 37° C. in a humid environment and were monitored at 625 nm for growth. […] Sterility controls and growth controls were included on each plate. The fractional inhibitory concentration (FIC) was determined as follows:
(§4) Results were interpreted in the following way: Synergistic if FIC≦0.5; Additive if […]; Indifferent if […]; Antagonistic if FIC≧2.0.

[3] = test system: Pseudomonas aeruginosa C-10; assay: as above; type: cell-based; settings: P. aeruginosa C-10; meropenem + compound, checkerboard
Description: as §1, §2, §3, §4

[4] = test system: Stenotrophomonas maltophilia IS 6081; assay: as above; type: cell-based; settings: S. maltophilia IS 6081, meropenem + compound
Description: as §1, §2, §3, §4

[5] = test system: Pseudomonas aeruginosa IS 6225; assay: as above; type: cell-based; settings: P. aeruginosa IS 6225, meropenem + compound
Description: as §1, §2, §3, §4

[6] = test system: Stenotrophomonas maltophilia IS 6069; assay: as above; type: cell-based; settings: S. maltophilia IS 6069, meropenem + compound
Description: as §1, §2, §3, §4

[7] = test system: Stenotrophomonas maltophilia IS 5568; assay: as above; type: cell-based; settings: S. maltophilia IS 5568; meropenem + compound, checkerboard
Description: as §1, §2
as §3, with “Lanes with no bacteria added served as sterility controls and lanes with no meropenem or compound served as growth controls.” left out
as §4

[8] = test system: Pseudomonas aeruginosa IS 5563; assay: as above; type: cell-based; settings: P. aeruginosa IS 5563; meropenem + compound, checkerboard
Description: as §1, §2
as §3, with “Lanes with no bacteria added served as sterility controls and lanes with no meropenem or compound served as growth controls.” left out
as §4

[9] = test system: β-lactamases; assay: β-Lactamase inhibition, result in words; type: biochemical
Source text: In preferred embodiments, the compounds incorporate a good leaving group at the C3′ carbon that can be readily expelled as an anion. In some embodiments, the leaving group is a C3′-benzoylthio group, which may be substituted or unsubstituted, according to the definitions provided above for substituted or unsubstituted.
This effect correlates with the expected better leaving group ability of the benzoylthio group in the hydrolysis product versus the benzoate group in the comparative compound.

[10] = target: T2, VIM-2 metallo-β-lactamase (Pseudomonas aeruginosa, UniProt Q9K2N0); assay: Inhibition of β-lactamases, nitrocefin hydrolysis; type: biochemical; settings: nitrocefin 100 μM, 10 min pre-incubation; read-out: IC50 VIM-2 (Class B)
T2 construct: made in house; host or cells: Escherichia coli BL21 (DE3) pLysS carrying pNOR2001
Description: VIM-2 metallo-β-lactamase was expressed in Escherichia coli BL21 (DE3) pLysS carrying pNOR2001 (a generous gift from P. Nordmann, Université Paris XI, France) and purified as reported by Poirel et al. (Antimicrob. Agents Chemother. 2000, 44, 891-897). The homogeneity and molecular weight of the mature VIM-2 (29.7 kDa) was determined by SDS-PAGE (Laemmli, U. K. Nature 1970, 227, 680-685). Enzyme concentration was determined from the absorbance at 280 nm (εEM=32,000 M^−1 cm^−1).
(§5) Assay conditions for IC50 determinations involved enzyme concentrations ranging between 2 and 6 nM. The concentration used for the nitrocefin substrate was 100 μM. Assays with OXA-10 and OXA-45 were conducted at pH 7.0 with 100 mM sodium phosphate buffer containing 25 mM sodium bicarbonate. Assays with KPC-2 and GC1 were performed at pH 7.0 in 50 mM HEPES buffer and assays with IMP-1 and VIM-2 were performed in the same buffer with the addition of 500 mM NaCl and 1 μM ZnSO4. BSA was used with all enzymes (except OXA-10 and KPC-2) at concentrations of 0.5-1.0 μg/mL.
(§6) Inhibitors were pre-incubated for 10 minutes at room temperature with enzyme assay solutions prior to the addition of the nitrocefin. […] Enzymatic activity was determined using the initial rate of increase in absorbance at 482 nm

[11] = target: T3, class A β-lactamase KPC-2 (Klebsiella pneumoniae, UniProt Q9F663); assay: Inhibition of β-lactamases, nitrocefin hydrolysis; type: biochemical; settings: nitrocefin 100 μM, 10 min pre-incubation
T3 construct: calculated for a mature protein with a 24 amino acid signal peptide removed; made in house; host or cells: Escherichia coli DH5α (pBR322-catI-blaKPC-2)
Description: The KPC-2 β-lactamase was purified from Escherichia coli DH5α strain containing the plasmid, pBR322-catI-blaKPC-2, which was kindly provided by Prof. F. van den Akker (Case Western Reserve University). Expression and purification of the enzyme was similar to that reported by Ke et al. (Biochemistry 2007, 46, 5732-5740). A molecular weight of 28,472 Da for the purified KPC-2 was determined by ESI MS. This is in close agreement with that calculated for a mature protein with a 24 amino acid signal peptide removed.
as §5, §6

[12] = target: T4, class C β-lactamase GC1 (Enterobacter cloacae, UniProt Q59401); assay: Inhibition of β-lactamases, nitrocefin hydrolysis; type: biochemical; settings: nitrocefin 100 μM, 10 min pre-incubation
T4 construct: made in house; host or cells: Escherichia coli AS226-51 harbouring pCS100
Description: GC1 β-lactamase was purified from Escherichia coli AS226-51 harbouring pCS100, which was a generous gift from Prof. M. Nukaga (Josai International University, Japan). The cell culture was harvested and subjected to a stringent periplasmic lysis protocol according to Crichlow et al. (Biochemistry 1999, 38, 10256-10261.). Purification proceeded similarly to Nukaga et al. (J. Biol. Chem. 2004, 279, 9344-9352.) with cation exchange chromatography (CM Sephadex C-50) equilibrated with 10 mM sodium phosphate buffer (pH 6), followed by elution with a stepwise gradient of increasing NaCl concentration. Fractions containing β-lactamase activity were then applied to a phenylboronate column (MoBiTec, Germany), equilibrated with 20 mM triethanolamine.HCl, pH 7.0, 0.5 M NaCl. The column was washed with the same buffer and then eluted with sterile 0.5 M borate buffer, pH 7.0, 0.5 M NaCl. Active fractions eluted from the phenylboronate column were analyzed for purity via SDS-PAGE, pooled, and concentrated before buffer exchange to 100 mM sodium phosphate, pH 7.0.
(§7) Assay conditions for IC50 determinations involved enzyme concentrations ranging between 2 and 6 nM. […]
as §6

[13] = target: class B β-lactamase NDM-1 (Klebsiella pneumoniae, UniProt C7C422); assay: Inhibition of β-lactamases, nitrocefin hydrolysis; type: biochemical; settings: 15 μM nitrocefin
[14] = target: T5, class D β-lactamase OXA-10 (Pseudomonas aeruginosa, UniProt P14489); assay: Inhibition of β-lactamases, nitrocefin hydrolysis; type: biochemical
T5 construct: indicating a post-translational deletion of a 20 amino acid signal peptide; made in house; host or cells: Escherichia coli BL21 (DE3), pET24a-blaOXA-10, purified from culture supernatant
Source text: OXA-10 β-lactamase was expressed and purified using a modified protocol of that reported by Golemi et al. (J. Am. Chem. Soc. 2000, 122, 6132-6133). The pET24a plasmid with the blaOXA-10 gene insert, a kind gift from Prof. S. Mobashery (Notre Dame University), was transformed into Escherichia coli BL21 (DE3) and induced with IPTG. Purification of the enzyme was achieved by the addition of ammonium sulfate to the induced culture supernatant. The protein precipitate collected (50-70% ammonium sulfate saturation) was dissolved and dialyzed against 10 mM Tris.SO4 buffer, pH 7.5, and further purified with a DE52 cellulose column (Whatman, UK) equilibrated with the same buffer. The material bound to the column was washed with 10 mM Tris.SO4 buffer, pH 7.5, followed by an elution with a K2SO4 gradient (0-100 mM). Protein fractions containing nitrocefin-hydrolyzing activity were concentrated and purity analyzed by SDS-PAGE. A molecular weight of 27,490 Da for OXA-10 was determined by ESI MS, indicating a post-translational deletion of a 20 amino acid signal peptide.
as §7, §6

[15] = target: class D β-lactamase OXA-45 (Pseudomonas aeruginosa, UniProt Q7WZC7); assay: Inhibition of β-lactamases, nitrocefin hydrolysis; type: biochemical
Description: OXA-45 β-lactamase was purified in the laboratory of Prof. T. Walsh (University of Bristol, UK) according to the method published (Toleman, M. A.; Rolston, K.; Jones, R. N.; Walsh, T. R. Antimicrob. Agents Chemother. 2003, 47, 2859-2863) and provided to this laboratory as a kind gift.
as §5
(§8) Inhibitors were pre-incubated for 10 minutes at room temperature with enzyme assay solutions prior to the addition of the nitrocefin. These compounds were dissolved in DMSO and prepared at various concentrations such that the final concentration of DMSO was 1% during the pre-incubation. The reaction was initiated by the addition of the pre-incubated enzyme-cyclobutanone solution (90 μL) to a solution of nitrocefin in buffer (10 μL). Enzymatic activity was determined using the initial rate of increase in absorbance at 482 nm

[16] = target: T6, IMP-1 metallo-β-lactamase (Serratia marcescens, UniProt P52699); assay: Inhibition of β-lactamases, nitrocefin hydrolysis; type: biochemical
T6 construct: made in house; host or cells: Escherichia coli BL21(DE3) carrying pCIP4
Source text: IMP-1 metallo-β-lactamase was expressed in Esherichia coli BL21(DE3) carrying pCIP4 and purified as reported by Laraki et al. (Antimicrob. Agents Chemother. 1999, 43, 902-906). The homogeneity of the protein was confirmed by SDS-PAGE according to the method of Laemmli (Nature 1970, 227, 680-685). The molecular weight of purified IMP-1, Mr=25,112±0.5 Da, as determined by ESI-MS, was in agreement with that deduced from its amino acid sequence (Laraki et al. Antimicrob. Agents Chemother. 1999, 43, 890-901).
as §5, §8

[17] = target: MBL CfiA (Aeromonas hydrophila, UniProt P26918); settings: cited from earlier work
[18] = target: T1, IMP-1; assay: Inhibition of IMP-1-catalyzed hydrolysis of meropenem in vitro (310 nm); type: biochemical

T1 sequence (P52699 19-246 limits assumed): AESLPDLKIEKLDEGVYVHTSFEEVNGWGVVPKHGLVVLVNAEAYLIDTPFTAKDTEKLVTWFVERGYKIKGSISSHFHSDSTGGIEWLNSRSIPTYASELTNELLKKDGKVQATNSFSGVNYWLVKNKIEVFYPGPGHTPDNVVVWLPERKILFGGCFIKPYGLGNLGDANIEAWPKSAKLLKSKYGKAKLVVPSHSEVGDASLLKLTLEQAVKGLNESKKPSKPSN
T6 sequence (P52699 19-246, looked up): as the sequence (P52699 19-246 limits assumed) above
T4 sequence (Q59401 entry or part of it): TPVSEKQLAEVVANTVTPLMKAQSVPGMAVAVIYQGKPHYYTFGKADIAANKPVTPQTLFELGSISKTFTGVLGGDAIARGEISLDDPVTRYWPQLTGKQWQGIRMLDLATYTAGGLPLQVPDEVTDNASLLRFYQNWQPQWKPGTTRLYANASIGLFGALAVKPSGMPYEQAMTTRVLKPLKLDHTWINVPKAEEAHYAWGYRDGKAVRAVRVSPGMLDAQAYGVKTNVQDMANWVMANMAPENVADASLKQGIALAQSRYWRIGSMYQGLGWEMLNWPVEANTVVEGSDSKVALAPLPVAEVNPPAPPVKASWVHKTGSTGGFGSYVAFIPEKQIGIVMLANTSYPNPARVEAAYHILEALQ
Sequence of class B β-lactamase NDM-1 (C7C422 29-270, looked up): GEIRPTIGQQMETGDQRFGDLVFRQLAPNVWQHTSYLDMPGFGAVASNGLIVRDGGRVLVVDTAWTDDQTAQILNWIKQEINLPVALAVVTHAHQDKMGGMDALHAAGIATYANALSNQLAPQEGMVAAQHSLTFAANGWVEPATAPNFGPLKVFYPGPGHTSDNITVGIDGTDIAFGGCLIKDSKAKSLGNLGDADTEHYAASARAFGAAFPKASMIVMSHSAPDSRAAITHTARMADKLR
T5 sequence (P14489 20-266): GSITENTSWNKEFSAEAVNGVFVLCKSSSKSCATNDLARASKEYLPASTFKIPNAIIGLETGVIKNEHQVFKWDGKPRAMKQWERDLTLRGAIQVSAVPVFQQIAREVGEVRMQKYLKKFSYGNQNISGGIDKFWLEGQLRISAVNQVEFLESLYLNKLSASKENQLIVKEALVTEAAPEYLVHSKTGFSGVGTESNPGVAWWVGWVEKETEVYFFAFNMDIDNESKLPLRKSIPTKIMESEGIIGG
T3 sequence (Q9F663 25-293, looked up): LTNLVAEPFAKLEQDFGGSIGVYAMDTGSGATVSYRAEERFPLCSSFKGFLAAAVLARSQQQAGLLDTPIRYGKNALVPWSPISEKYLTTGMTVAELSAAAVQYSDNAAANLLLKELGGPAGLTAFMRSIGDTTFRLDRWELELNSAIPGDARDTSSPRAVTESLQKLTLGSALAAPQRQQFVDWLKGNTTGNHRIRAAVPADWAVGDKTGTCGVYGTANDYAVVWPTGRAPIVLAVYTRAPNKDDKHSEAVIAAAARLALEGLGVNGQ
Sequence of MBL CfiA (P26918 28-254): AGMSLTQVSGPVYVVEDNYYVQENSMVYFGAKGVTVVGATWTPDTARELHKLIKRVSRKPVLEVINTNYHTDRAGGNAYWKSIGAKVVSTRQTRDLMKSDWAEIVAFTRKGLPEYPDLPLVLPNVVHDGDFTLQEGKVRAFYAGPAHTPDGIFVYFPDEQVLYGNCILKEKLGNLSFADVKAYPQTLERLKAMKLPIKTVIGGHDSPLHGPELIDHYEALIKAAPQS
Sequence of class D β-lactamase OXA-45 (Q7WZC7 entry or part of it): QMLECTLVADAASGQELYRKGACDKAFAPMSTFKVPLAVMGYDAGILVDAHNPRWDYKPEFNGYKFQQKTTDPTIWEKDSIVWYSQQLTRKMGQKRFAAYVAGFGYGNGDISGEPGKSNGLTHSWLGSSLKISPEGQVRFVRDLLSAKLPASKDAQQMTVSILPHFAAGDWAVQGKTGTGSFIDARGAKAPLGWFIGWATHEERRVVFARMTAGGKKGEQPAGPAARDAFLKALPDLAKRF

O=C(Cc1cccs1)N[C@@H]1C(=O)N2C(C(=O)O)=C(CSC(=O)c3ccccc3)CS[C@H]12 [CMPD A, (6R,7R)-3-(benzoylthiomethyl)-8-oxo-7-(2-(thiophen-2-yl)acetamido)-5-thia-1-azabicyclo[4.2.0]oct-2-ene-2-carboxylic acid]
effect on sensitivity of IMP-1 to proteolysis by trypsin [1]: increases the sensitivity of the protein to proteolysis by trypsin | FIC [2]: 0.2539 | FIC [3]: 0.5625 | FIC [4]: 0.2539 | FIC [5]: 0.625 | FIC [6]: 0.25 | FIC [7]: 0.1328 | FIC [8]: 0.1289 | β-lactamase inhibition [9]: good inhibitor

O=C(Cc1cccs1)N[C@@H]1C(=O)N2C(C(=O)O)=C(CSC(=O)c3ccccc3)CS[C@H]12 [drawing 27]
IC50 [10]: 1.8 µM | IC50 [11]: 71 µM | IC50 [12]: 140 µM | IC50 [13]: 33 µM | IC50 [14]: 8.1 µM | IC50 [15]: 24 µM | IC50 [16]: 3.1 µM

O=C(Cc1ccc(F)cc1)N[C@@H]1C(=O)N2C(C(=O)O)=C(CSC(=O)c3ccccc3)CS[C@H]12 [drawing 28]
IC50 [10]: 4.2 µM | IC50 [11]: 104 µM | IC50 [12]: 11 µM | IC50 [13]: 40 µM | IC50 [14]: 6.3 µM | IC50 ([16]; nitrocefin 100 μM, 10 min pre-incubation, read-out: IC50 IMP-1 (Class B)): 8.2 µM

CO[C@@]1(NC(=O)C(C(=O)O)c2ccc(O)cc2)C(=O)N2C(C(=O)O)=C(CSc3nnnn3C)CO[C@@H]21 (stereo partly shown) [moxalactam]
incubation required for full inactivation of CfiA [17]: 14 h | performance as inhibitor [18]: poor performance | protection of meropenem from IMP-1-catalyzed hydrolysis in vitro ([18]; IMP-1 12 nM, meropenem 200 μM, test substance 100 μM, 310 nm): poor protection
